Measurements from patent US5824670A, “17-deoxycorticosteroid-21-[O]carboxylic esters, processes for their preparation and pharmaceuticals containing these compounds” (priority 1994, dated 1998).

How the values were obtained:
[1] = system: allergic inflammation of the delayed type (oxazolone ear edema); experiment: Local antiinflammatory effect in oxazolone ear edema in mice following epicutaneous application; assay type: in vivo, male NMRI mice; conditions: for inflammatory edematous swelling, difference between right and left auricle weights (x ± s) / Inhibition in %: 24 h; for inflammatory edematous swelling, difference between right and left auricle weights (x ± s): mice; for Inhibition in %: vs control
Description: 1. Local antiinflammatory effect in oxazolone ear edema in mice following epicutaneous application.
The method described by Evans, D. P. et al., Br. J. Pharmacol 43, 403 (1971) was used. In mice, 4-ethoxy-methylene-2-phenyl-2-oxazoline (oxazolone) produces an allergic inflammation of the delayed type which can be inhibited by corticosteroids. The experimental animals employed are male NMRI mice of 25 g body weight which are divided into groups of 10 animals each. The animals were sensitized by applying 0.1 ml of a 2% solution of oxazolone in acetone to the shaven skin of the abdomen. On the 9th day following this sensitization, the allergic inflammation was triggered by applying 10 μl of a 2% solution of oxazolone/acetone to the inner side of the right ear auricle (control group). In the treated groups, the abovementioned solution contained the test preparations. 24 hours after applying the solutions, the animals were killed with CO2. A circular sample, measuring 8 mm, was punched out from each of the treated right ear auricle and the untreated left ear auricle. The samples were weighed immediately, with the difference between the right and left auricle weights representing the measure of the degree of inflammation. This inflammatory edematous swelling, in mg, was set to equal 100% in the control group, and the inflammation-inhibiting effect of the preparations is given as the percentage inhibition as compared with the control.

carrageenin paw edema = experiment: Systemic activity following subcutaneous administration in the carrageenin paw edema test in rats; assay type: in vivo, Male Sprague-Dawley rats; conditions: for Increase at 3 h (paw volume) / Increase at 6 h (paw volume): x ± s, * = p<0.05 Dunnett
Description: 2a. Testing for systemic activity following subcutaneous administration in the carrageenin paw edema test in rats The method was described by Winter, C. A. et al. in Proc. Soc. exp. Biol. (N.Y.), 111, 544, (1962). Male Sprague-Dawley rats of approximately 200 g body weight, and in group sizes of n=5, were given the substances subcutaneously (0.2 ml/100 g of body weight, dissolved in sesame oil). Controls were given sesame oil alone. 15 minutes later, 0.1 ml of a 0.5% solution of carrageenin was injected into the left hind paw. Prior to this, and at 3 h and 6 h afterwards, the paw volume was measured (ml) and the increase in swelling was ascertained by comparing with the preliminary value. The numbers are mean value and standard deviation (x±s). Statistical significance was assessed using the Dunnett test.

[2] = system: Gluconeogenesis (liver glycogen and glucose); experiment: Systemic effect: Gluconeogenesis in rats; assay type: in vivo, Male Sprague-Dawley rats
Description: 2b. Testing for systemic effect: Gluconeogenesis in rats
Male Sprague-Dawley rats of approximately 140 g in weight were adrenalectomized. They were given an 0.9% solution of sodium chloride as their drinking water. 48 h later, the animals' feed was removed for 24 h. On the day of the experiment (3 days after adrenalectomy and 1 day of starvation), the experimental preparations were administered s.c. (2 ml/kg in sesame oil, with controls only receiving this vehicle). The animals were decapitated 6 h later, with 1 g of liver being removed in each case. The sample was taken up in 5 ml of 0.6M perchloric acid. Following homogenization and centrifugation, glucose was determined in the supernatant. The precipitate (glycogen) was hydrolyzed enzymically with amyloglucosidase, and glucose was also determined in the resulting hydrolysate (hexokinase test kit, from Boehringer Mannheim).

| SMILES | inflammatory edematous swelling, difference between right and left auricle weights (x ± s) ([1]; 0.03 mg/ml epicutaneous) | Inhibition in % ([1]; 0.03 mg/ml epicutaneous) | inflammatory edematous swelling, difference between right and left auricle weights (x ± s) ([1]; 0.1 mg/ml epicutaneous) | Inhibition in % ([1]; 0.1 mg/ml epicutaneous) | inflammatory edematous swelling, difference between right and left auricle weights (x ± s) ([1]; 0.3 mg/ml epicutaneous) | Inhibition in % ([1]; 0.3 mg/ml epicutaneous) | effect on paw edema (in words) (carrageenin paw edema; 0.1 mg/kg s.c.) | Increase at 3 h (paw volume) (carrageenin paw edema; 0.1 mg/kg s.c.) | Increase at 6 h (paw volume) (carrageenin paw edema; 0.1 mg/kg s.c.) | effect on paw edema (in words) (carrageenin paw edema; 0.3 mg/kg s.c.) | Increase at 3 h (paw volume) (carrageenin paw edema; 0.3 mg/kg s.c.) | Increase at 6 h (paw volume) (carrageenin paw edema; 0.3 mg/kg s.c.) | gluconeogenic effect (in words) ([2]; 0.1 mg/kg, p<0.05, Dunnett's test) | local antiinflammatory effect (in words) ([1]; mouse, in vivo) | advantage (factor) over deoxymethasone regarding gluconeogenic effect ([2]; rat, in vivo) |
| --- | --- | --- | --- | --- | --- | --- | --- | --- | --- | --- | --- | --- | --- | --- | --- |
| C[C@@H]1C[C@H]2[C@@H]3CCC4=CC(=O)C=C[C@]4(C)[C@@]3(F)[C@@H](O)C[C@]2(C)[C@H]1C(=O)CO [Deoxymethasone, 9α-fluoro-16α-methyl-1(2)-dehydrocorticosterone] | 8.6 ± 3.1 mg | 36% | 3.9 ± 3.0 mg | 71% | 2.8 ± 2.3 mg | 79% | significant effect | 0.28 mL | 0.23 ± 0.09 mL | almost completely inhibits the inflammation | 0.17 mL | 0.03 ± 0.03 mL | already exhibits this undesirable effect | – | – |
| C[C@@H]1C[C@H]2[C@@H]3CCC4=CC(=O)C=C[C@]4(C)[C@@]3(F)[C@@H](O)C[C@]2(C)[C@H]1C(=O)COC(=O)/C=C/c1ccccc1 [Cmpnd. I, Deoxymethasone 21-cinnamic ester] | 7.7 ± 3.7 mg | 43% | 3.9 ± 2.9 mg | 71% | 2.3 ± 1.3 mg | 83% | does not | 0.40 ± 0.06 mL | 0.39 ± 0.12 mL | practically without effect | 0.46 ± 0.12 mL | 0.32 ± 0.05 mL | – | strong, local antiinflammatory effect | 3-10 |
